Assay [1] has as its system Calu3 lung adenocarcinoma cells (K-Ras WT). The experiment in a line: Growth inhibition, thoracic malignancy cell lines: Calu3. Type of assay: cell-based.
The subject of assay [2] is H157 lung squamous cell carcinoma cells (K-Ras mutant). In words: Growth inhibition, thoracic malignancy cell lines: H157. Type of assay: cell-based.
For assay [3], the system named is H2461 malignant pleural mesothelioma cells (K-Ras WT). In words: Growth inhibition, thoracic malignancy cell lines: H2461. Type of assay: cell-based.
The subject of assay [4] is Calu 6 lung adenocarcinoma cells (K-Ras mutant). The experiment in a line: Growth inhibition, thoracic malignancy cell lines: Calu 6. Type of assay: cell-based. The note with it: Calu 6, K-Ras mutant.
The test system of assay [5] is H2882 lung adenocarcinoma cells (K-Ras WT). In words: Growth inhibition, thoracic malignancy cell lines: H2882. It is filed as cell-based.
The subject of assay [6] is Ras protein in H2009 and H2592 cells. The experiment in a line: Western blot of Ras protein amount in cancer cells. It is filed as cell-based. The note with it: 0-3.0 μM, 18 hours. As for the experimental part:
A further experiment was undertaken to determine the effect of analogs of helix 6 and HVR on the amount of K-Ras protein in cancer cells. H2009 (lung adenocarcinoma cells) and H2592 (plural mesothelioma cells) were exposed to varying concentrations (0-3.0 μM) of kR-4A-3, kR-4B-3, or kR-H6-3 for 18 hours. The cells then were lysed and the lysate was analyzed by Western blot using anti-Ras mAb (Cell Biolabs, Inc.).

The target in a further assay is K-Ras in H2592 cells (Homo sapiens, UniProt P01116). The note with it: GI50 concentrations, 18 hours.
In assay [7] the test system is HCC95 lung squamous cell carcinoma cells (K-Ras WT). In words: Growth inhibition, thoracic malignancy cell lines: HCC95. It is filed as cell-based.
The test system of assay [8] is H2596 malignant pleural mesothelioma cells (K-Ras WT). The experiment in a line: Growth inhibition, thoracic malignancy cell lines: H2596. Type of assay: cell-based.
For assay [9], the system named is H2009 lung adenocarcinoma cells (K-Ras mutant). In words: Growth inhibition, thoracic malignancy cell lines: H2009. Type of assay: cell-based.
The test system of assay [10] is H358 broncheoalveolar cells (K-Ras mutant). The experiment in a line: Growth inhibition, thoracic malignancy cell lines: H358. Type of assay: cell-based, human.
For assay [11], the system named is H2373 malignant pleural mesothelioma cells (K-Ras WT). In words: Growth inhibition, thoracic malignancy cell lines: H2373. Type of assay: cell-based.
Assay [12] concerns H23 lung adenocarcinoma cells (K-Ras mutant). In words: Growth inhibition, thoracic malignancy cell lines: H23. Type of assay: cell-based.
For assay [13], the system named is A549 human lung cancer cell line harboring constitutively active Ras mutant. In words: MTT growth inhibition assay, A549. Type of assay: cell-based. As for the experimental part:
(§1) MCF-7 (breast cancer), T47D (breast cancer), Colo 205 (colon cancer), JM-1 (rat hepatoma), Sk Mel-2 (melanoma), PLC (human hepatoma), and HepG2 (human hepatoma) were obtained from American Type Cell Culture Collection. MCF-7 cells were grown in RPMI medium supplemented with 10% Fetal Bovine Serum. The remaining cell lines were grown in DMEM medium supplemented with 10% Fetal Bovine Serum. For the assay, cells were seeded into 96 well plates in medium containing 1% Fetal Bovine Serum and 100 μL of a cell suspension containing 5000 cells per well were used for each well. Cell growth was evaluated utilizing MTT ((3-(4,5-Dimethylthiazol-2-yl)-2,5-diphenyltetrazolium). The absorbance of the wells at 544 nm was determined by a FLUOstar/POLARstar Galaxy (BMG Lab Technologies GmbH) microplate reader.
(§2) The growth inhibitory activity of compounds was compared using the A549 human lung cancer cell line harboring constitutively active G12D Ras mutant with the help of an MTT assay. […] Stepwise extensions and truncations confirmed that the peptide had the optimal length (see Table 1).
(§3) The growth inhibitory activity of compounds was compared using the A549 human lung cancer cell line harboring constitutively active G12D Ras mutant with the help of an MTT assay.

Assay [14] deals with H460 large cell carcinoma cells (K-Ras mutant). The experiment in a line: Growth inhibition, thoracic malignancy cell lines: H460. Type of assay: cell-based, human.
Assay [15] concerns HCC15 lung squamous cell carcinoma cells (K-Ras WT). The experiment in a line: Growth inhibition, thoracic malignancy cell lines: HCC15. Type of assay: cell-based.
Assay [16] concerns HP-1 malignant pleural mesothelioma cells (K-Ras WT). In words: Growth inhibition, thoracic malignancy cell lines: HP-1. It is filed as cell-based. Conditions: HP-1, K-Ras WT.
Assay [17] deals with A549 human lung cancer cell line harboring constitutively active G12D Ras mutant. The experiment in a line: MTT growth inhibition assay, A549. Type of assay: cell-based. As for the experimental part:
as §1, §2, §3
On the technique in general: Tetrazolium dyes change colour on reduction, which living cells bring about.

Assay [18] deals with human lung tumor cell lines (A549, H460, and H1944) and a mouse astrocytoma cell line (187436 tu2) expressing mutated K-Ras. The experiment in a line: Growth inhibition in cell lines expressing mutated K-Ras (FIGS. 2 and 3). Conditions: A549, H460, H1944, 187436 tu2. Type of assay: cell-based. An excerpt:
The cell line was generated from astrocytoma developed in a transgenic mouse harboring a G12D mutation in K-Ras and inactivation of the Rb gene.

The subject of assay [19] is Ras-dependent cancer cells (H358, SKBR3, SKOV3, ID8, MPR-178). The experiment in a line: MTT growth assay on Ras-dependent cancer cells. It is filed as cell-based, human, murine. The note with it: 48 hours, 1% FBS. As for the experimental part:
Ras-dependent cancer cells (H358 human lung cancer cells, SKBR3 human breast cancer cells, SKOV3 human ovarian cancer cells, ID8 murine ovarian cancer cells, and MPR-178 murine prostate cancer cells) were grown in DMEM medium containing 1% FBS and exposed to varying concentrations of Ras inhibitors (kR-H6-48 and HR-1) for 48 hours. Cell growth was evaluated utilizing an MTT ((3-(4,5-Dimethylthiazol-2-yl)-2,5-diphenyltetrazolium) assay. The absorbance of the wells at 544 nm was determined by a FLUOstar/POLARstar Galaxy (BMG Lab Technologies GmbH, Ortenberg, Germany) microplate reader. The assays were performed on untreated (control) and test cells. Cellular responses were calculated from the data using the following formula: 100×[(T−T0)/(C−T0)] for T>T0 and 100×[(T−T0)/T0] for T<T0, wherein T0 corresponds to cell density at the time of drug addition.

In assay [20] the test system is activated (GTP-bound) Ras in H358 human lung cancer cells. The experiment in a line: Raf-RBD pull-down of active (GTP-bound) Ras. Type of assay: cell-based. Conditions: 5 μM, varying exposure times. As for the experimental part: H358 human lung cancer cells were grown in 6-well plates in DMEM medium containing 10% FBS. When the cells were about 70% confluent, the medium was replaced with DMEM containing 1% FBS. Two hours later, Ras inhibitors (kR-H6-48, HR-1, kR-4A-4, or kR-4B-2) were added to provide a final concentration of 5 μM.
After varying exposure times, the cells were rinsed with PBS and lysed. The lysates were cleared by centrifugation, incubated with immobilized Raf-RBD beads (which bind Ras) and analyzed by Western blot using manufacturer's protocols (Cytoskeleton, Inc., Denver, Colo.; Catalog No. BK008). The bands corresponding to active (GTP-bound) Ras were quantified with the help of MIPAV software.

The target of assay [21] is 15N-labeled truncated K-Ras (1-166) (Homo sapiens, UniProt P01116). Conditions: 200 μM protein, 25° C., chemical shift perturbations Q25, N26, S32, T35, E37.
Protocol: The titration was followed by NMR ^15N-edited HSQC spectra acquired on a 600 MHz Bruker spectrometer at 25° C.
For assay [22], the system named is Lewis lung carcinoma LL/2 (LLC1) cells. In words: Lewis lung carcinoma LLC1 isograft growth. Conditions: 10 mg/kg s.c. near the tumor every second day. It is filed as in vivo, female CB57Bl/6 mice. As for the experimental part:
Lewis lung carcinoma LL/2 (LLC1) (ATCC Catalog No. CRL-1642) cells were grown in DMEM medium containing 10% FBS. Cells were trypsinized and suspended in PBS. 3×10^6 LLC1 cells in 200 μl PBS were injected subcutaneously to the right flank of 8 weeks old female CB57Bl/6 mice.
Ras inhibitor injections started 2 weeks after LLC1 injections when tumors were at least 3 mm in diameter. For injections, solid kR-H6-48 was initially dissolved in DMSO to yield 20 mg/mL stock solution. DMSO stocks were diluted 20-fold in PBS pre-warmed to 35-37° C. 200 μl of the resulting solution (10 mg/kg dose) was injected subcutaneously near the tumor(s) every second day. The control group received 200 μl of 5% DMSO in PBS. Tumor size was measured with a caliper before each injection. The mice were sacrificed when the tumors reached maximal allowed size.

Setting [23] is: A549, MTT, Table 2 HVR derivatives.
Setting [24] is: A549, MTT, Table 1 helix 6 derivatives.

Usually GI50 stands for the concentration at which growth is held to half of that of the control.

Description for K-Ras in H2592 cells: Goat anti-mouse antibodies with Alexa Fluor TM 594 (red) were used to visualize the anti-Ras mouse mAb.

Take “Ac-YRLKKISKEEKTPGLNVKIKKK-e-Pal [kR-4A-3]”: the concentration for 50% growth inhibition (GI50) is 5.9 µM in assay [1]; 2400 nM in [2]; > 10 µM in [3]; 3000 nM in assay [4]; 4 µM in assay [5]; 5.1 µM in [7]. Besides, the GI50 in [8] stood at 8.2 µM; in assay [9] it was 2200 nM; in [10] it was 2200 nM; in assay [11] it was 6.1 µM; in [12] it was 2600 nM; in assay [13] (A549, K-Ras mutant, Table 3), 3100 nM. In addition, the GI50 in [13] (setting [23]) is 1900 nM; in assay [14], 1500 nM; in assay [15], 7.4 µM; in assay [16] it was > 10 µM. Besides, the “amount of Ras protein” value in [6] is listed as “reduced the amount of Ras protein in lung cancer cells in a concentration-dependent manner”. The “Ras protein levels by immunostaining” value on K-Ras in H2592 cells was “reduction in protein levels”. For the same substance, the “pattern of K-Ras distribution” value on K-Ras in H2592 cells is “lack of characteristic punctuate pattern of K-Ras distribution”.

In assay [13] (setting [24]), “Ac-RYQRIQRVLTYFAK-e-Pal (all D) [kR-H6-30]” returned a GI50 of 10 ± 5 nM. Besides, the “additional fold reduction in GI50” value in assay [17] (Glu162 replaced with Gln) was 1.7 fold.

For the substance “Ac-RYQRIERVLTYFAK-e-Pal (all D) [kR-H6-23]”, the “growth inhibition (cell number, percent of control)” value in [18] is recorded as “growth inhibition”. For the same substance, in [13] (setting [24]), the GI50 is 25 ± 10 nM. Moreover, the “fold more toxic to cancer cells than kR-H6-6” value in [17] (retroinverso version versus kR-H6-6) came to 10 fold.

For Ac-ESGPGLNLNSLNKK-e-Pal [HR-1], in assay [19], the “growth of Ras-dependent cancer cells (cell number, percent of control)” value is recorded as “growth inhibition of Ras-dependent cancer cells”. Further, the “GTP-bound Ras (fraction of control)” value in assay [20] is reported as “reduction in activated (GTP-bound) Ras”. This substance yielded a GI50 in [13] (setting [23]) of 250 nM.

As to Pal-e-KAFYTLVREIRQYR [kR-H6-6], in [21], the “site of interaction with K-Ras” value is given as “localized interaction of the peptide with the Switch I region of K-Ras”. Besides, halving of growth in assay [13] (setting [24]) (GI50) required 250 nM.

Take Ac-KKKKKKSKTKK-e-Pal [kR-4B-3]: the GI50 in assay [1] is 2.2 µM; in [2], 1500 nM; in [3] it was > 10 µM; in assay [4], 2700 nM; in assay [5], 3 µM; in assay [7], 3.3 µM. The GI50 in [8] was 6.2 µM; in [9], 2900 nM; in assay [10], 2000 nM; in assay [11] it was 4.8 µM; in [12], 2400 nM; in assay [13] (A549, K-Ras mutant, Table 3), 1450 nM. Besides, the GI50 was found to be 1750 nM in assay [13] (setting [23]), 1000 nM in assay [14], 3.1 µM in [15] and 7.3 µM in assay [16]. In assay [6], the “amount of Ras protein” value is on record as “reduced the amount of Ras protein in lung cancer cells in a concentration-dependent manner”.

For the substance Cap-YQRVQRVLTYFA (all D) [kR-H6-48], the LLC1 isograft growth result in [22] is listed as “inhibited LLC1 isograft growth”. Besides, the “growth of Ras-dependent cancer cells (cell number, percent of control)” value in [19] is on record as “growth inhibition of Ras-dependent cancer cells”. Further, the “GTP-bound Ras (fraction of control)” value in assay [20] is “reduction in activated (GTP-bound) Ras”. This substance also came in with a GI50 in assay [13] (setting [24]) of 0.8 ± 0.5 nM.

Source of the values: US9328142B2, “Lipopeptide inhibitors of RAS oncoproteins” (The United States of America, as represented by The …, priority 2011, dated 2016).
